Test results from paper PMC5668434, “Modulation of telomere protection by the PI3K/AKT pathway” (Nature Communications, 2017).

How the values were obtained:
[1] = test system: TRF1 foci in CHA-9.3 mouse lung tumor cell line; assay: TRF1 foci immunofluorescence in CHA-9.3 cells; assay type: cell-based; settings: for Inhibition of TRF1 foci (in words): 10 μM (GSK-2126458 1.0 μM), 24 h, CHA-9.3; for TRF1 levels as compared to bortezomib/DMSO-treated control cells: 10 μM plus bortezomib 50 nM, CHA 9-3
[2] = test system: panel of 24 kinases representing the human kinome; assay: ProQinase 24 kinase selectivity panel (whole panel); assay type: biochemical; settings: 1 µM
Experimental: The kinase selectivity of the inhibitors used here was ensured in order to discard potential off-targets effects contributing to the observed TRF1 modulation.
(§1) Supplementary Table 1: Kinase selectivity profile of ETP-47037 and ETP-47228 at 1 µM. Selectivity against protein kinases was determined from evaluation of compounds at 1µM in ProQinase’s 24 selected panel that represents the ACG, STE, TKL, TK, CMGC CAMK and CK1 kinase families.

AKT2 = target: T1, AKT2 (Homo sapiens, UniProt P31751); assay: ProQinase kinase panel; assay type: biochemical; settings: read-out: Inh (%) at 1µM, AKT2
T1 construct: purchased ProQinase
T1 sequence (P31751 whole entry): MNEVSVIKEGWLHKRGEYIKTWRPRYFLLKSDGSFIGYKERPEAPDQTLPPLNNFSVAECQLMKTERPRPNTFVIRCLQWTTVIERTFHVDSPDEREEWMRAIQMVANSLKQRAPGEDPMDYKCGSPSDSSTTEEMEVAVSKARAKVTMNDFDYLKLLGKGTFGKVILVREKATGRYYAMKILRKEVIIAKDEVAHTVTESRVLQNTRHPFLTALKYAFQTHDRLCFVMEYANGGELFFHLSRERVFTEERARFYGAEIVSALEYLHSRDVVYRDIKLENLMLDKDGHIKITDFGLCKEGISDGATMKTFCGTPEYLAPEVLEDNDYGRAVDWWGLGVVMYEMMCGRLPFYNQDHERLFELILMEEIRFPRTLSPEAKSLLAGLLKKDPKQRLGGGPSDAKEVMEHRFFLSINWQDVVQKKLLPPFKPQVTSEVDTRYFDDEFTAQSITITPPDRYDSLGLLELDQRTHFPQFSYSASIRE
Experimental: as §1

B-RAF-V600E = target: T2, B-RAF-V600E (Homo sapiens, UniProt P15056, V600E); assay: ProQinase kinase panel; assay type: biochemical; settings: read-out: Inh (%) at 1µM, B-RAF-V600E
T2 construct: purchased ProQinase
Experimental: as §1

CDK8-CycC = target: T3, CDK8-CycC (Homo sapiens, UniProt P49336); assay: ProQinase kinase panel; assay type: biochemical; settings: read-out: Inh (%) at 1µM, CDK8-CycC
T3 construct: purchased ProQinase
Experimental: as §1

CHK1 = target: T4, CHK1 (Homo sapiens, UniProt O14757); assay: ProQinase kinase panel; assay type: biochemical; settings: read-out: Inh (%) at 1µM, CHK1
T4 construct: purchased ProQinase
Experimental: as §1

CHK2 = target: T5, CHK2 (Homo sapiens, UniProt O96017); assay: ProQinase kinase panel; assay type: biochemical; settings: read-out: Inh (%) at 1µM, CHK2
T5 construct: purchased ProQinase
Experimental: as §1

CK1-alpha1 = target: T6, CK1-alpha1 (Homo sapiens, UniProt P48729); assay: ProQinase kinase panel; assay type: biochemical; settings: read-out: Inh (%) at 1µM, CK1-alpha1
T6 construct: purchased ProQinase
Experimental: as §1

DYRK1A = target: T7, DYRK1A (Homo sapiens, UniProt Q13627); assay: ProQinase kinase panel; assay type: biochemical; settings: read-out: Inh (%) at 1µM, DYRK1A
T7 construct: purchased ProQinase
Experimental: as §1

EGF-R = target: T8, EGF-R (Homo sapiens, UniProt P00533); assay: ProQinase kinase panel; assay type: biochemical; settings: read-out: Inh (%) at 1µM, EGF-R
T8 construct: purchased ProQinase
Experimental: as §1

FAK = target: T9, FAK (Homo sapiens, UniProt Q05397); assay: ProQinase kinase panel; assay type: biochemical; settings: read-out: Inh (%) at 1µM, FAK
T9 construct: purchased ProQinase
Experimental: as §1

FGF-R1 = target: T10, FGF-R1 (Homo sapiens, UniProt P11362); assay: ProQinase kinase panel; assay type: biochemical; settings: read-out: Inh (%) at 1µM, FGF-R1
T10 construct: purchased ProQinase
Experimental: as §1

IGF1-R = target: T11, IGF1-R (Homo sapiens, UniProt P08069); assay: ProQinase kinase panel; assay type: biochemical; settings: read-out: Inh (%) at 1µM, IGF1-R
T11 construct: purchased ProQinase
Experimental: as §1

IKK-beta = target: T12, IKK-beta (Homo sapiens, UniProt O14920); assay: ProQinase kinase panel; assay type: biochemical; settings: read-out: Inh (%) at 1µM, IKK-beta
T12 construct: purchased ProQinase
T12 sequence (O14920 whole entry): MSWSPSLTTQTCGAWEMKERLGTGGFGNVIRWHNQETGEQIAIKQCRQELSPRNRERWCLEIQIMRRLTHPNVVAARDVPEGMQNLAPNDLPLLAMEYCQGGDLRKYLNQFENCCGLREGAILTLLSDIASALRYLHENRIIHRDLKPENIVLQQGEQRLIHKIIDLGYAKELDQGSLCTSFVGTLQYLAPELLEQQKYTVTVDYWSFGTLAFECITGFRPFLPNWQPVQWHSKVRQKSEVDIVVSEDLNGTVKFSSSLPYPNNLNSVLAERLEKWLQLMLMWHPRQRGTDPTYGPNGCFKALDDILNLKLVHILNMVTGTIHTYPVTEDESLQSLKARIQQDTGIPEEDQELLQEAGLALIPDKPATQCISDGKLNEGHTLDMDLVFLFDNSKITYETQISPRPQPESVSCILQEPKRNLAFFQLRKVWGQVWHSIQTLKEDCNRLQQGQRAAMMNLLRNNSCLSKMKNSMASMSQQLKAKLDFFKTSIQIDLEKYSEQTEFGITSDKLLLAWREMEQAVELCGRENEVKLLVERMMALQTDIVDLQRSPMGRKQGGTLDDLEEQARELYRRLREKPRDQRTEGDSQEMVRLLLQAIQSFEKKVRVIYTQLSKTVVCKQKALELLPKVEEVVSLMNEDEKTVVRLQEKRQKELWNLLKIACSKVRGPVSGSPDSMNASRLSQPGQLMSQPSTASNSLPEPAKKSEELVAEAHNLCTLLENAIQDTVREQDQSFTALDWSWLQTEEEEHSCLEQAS
Experimental: as §1

INS-R = target: T13, INS-R (Homo sapiens, UniProt P06213); assay: ProQinase kinase panel; assay type: biochemical; settings: read-out: Inh (%) at 1µM, INS-R
T13 construct: purchased ProQinase
Experimental: as §1

JAK2 = target: T14, JAK2 (Homo sapiens, UniProt O60674); assay: ProQinase kinase panel; assay type: biochemical; settings: read-out: Inh (%) at 1µM, JAK2
T14 construct: purchased ProQinase
Experimental: as §1

KIT = target: T15, KIT (Homo sapiens, UniProt P10721); assay: ProQinase kinase panel; assay type: biochemical; settings: read-out: Inh (%) at 1µM, KIT
T15 construct: purchased ProQinase
T15 sequence (P10721 26-976): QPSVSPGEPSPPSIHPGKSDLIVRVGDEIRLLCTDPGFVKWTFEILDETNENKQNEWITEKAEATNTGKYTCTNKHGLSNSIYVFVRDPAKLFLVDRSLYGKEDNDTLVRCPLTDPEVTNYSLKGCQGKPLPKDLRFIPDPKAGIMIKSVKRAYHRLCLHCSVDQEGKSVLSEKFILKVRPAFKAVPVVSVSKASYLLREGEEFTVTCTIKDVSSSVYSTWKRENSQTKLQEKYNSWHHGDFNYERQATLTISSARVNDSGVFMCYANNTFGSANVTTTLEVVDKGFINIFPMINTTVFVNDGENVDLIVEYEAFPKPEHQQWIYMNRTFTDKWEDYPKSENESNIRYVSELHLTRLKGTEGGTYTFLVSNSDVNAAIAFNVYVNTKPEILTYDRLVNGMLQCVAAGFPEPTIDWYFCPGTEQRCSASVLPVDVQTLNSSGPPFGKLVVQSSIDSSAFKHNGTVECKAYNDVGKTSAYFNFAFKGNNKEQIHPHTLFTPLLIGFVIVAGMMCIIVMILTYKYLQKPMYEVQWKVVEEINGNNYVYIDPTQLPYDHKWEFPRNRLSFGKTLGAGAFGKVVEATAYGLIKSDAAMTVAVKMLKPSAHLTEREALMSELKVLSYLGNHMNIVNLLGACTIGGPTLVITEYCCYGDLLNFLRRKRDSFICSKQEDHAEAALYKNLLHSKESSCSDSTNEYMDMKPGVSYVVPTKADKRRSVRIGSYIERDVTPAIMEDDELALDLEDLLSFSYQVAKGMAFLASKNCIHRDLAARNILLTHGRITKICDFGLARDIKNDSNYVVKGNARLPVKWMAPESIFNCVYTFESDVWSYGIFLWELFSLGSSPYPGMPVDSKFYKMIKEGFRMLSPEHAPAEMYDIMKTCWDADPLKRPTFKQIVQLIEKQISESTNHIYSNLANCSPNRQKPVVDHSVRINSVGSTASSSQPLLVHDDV
Experimental: as §1

MEK1 = target: T16, MEK1 (Homo sapiens, UniProt Q02750); assay: ProQinase kinase panel; assay type: biochemical; settings: read-out: Inh (%) at 1µM, MEK1
T16 construct: purchased ProQinase
T16 sequence (Q02750 whole entry): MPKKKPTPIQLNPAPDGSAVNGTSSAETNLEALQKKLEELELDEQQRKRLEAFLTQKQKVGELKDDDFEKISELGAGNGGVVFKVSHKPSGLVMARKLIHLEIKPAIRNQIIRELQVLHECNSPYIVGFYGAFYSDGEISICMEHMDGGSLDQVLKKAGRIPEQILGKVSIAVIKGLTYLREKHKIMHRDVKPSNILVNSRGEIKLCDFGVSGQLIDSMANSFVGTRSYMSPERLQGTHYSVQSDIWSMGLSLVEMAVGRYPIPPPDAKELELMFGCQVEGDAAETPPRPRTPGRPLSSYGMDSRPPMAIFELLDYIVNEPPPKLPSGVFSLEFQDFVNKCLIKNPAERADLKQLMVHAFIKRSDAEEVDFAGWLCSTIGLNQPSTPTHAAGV
Experimental: as §1

MET = target: T17, MET (Homo sapiens, UniProt P08581); assay: ProQinase kinase panel; assay type: biochemical; settings: read-out: Inh (%) at 1µM, MET
T17 construct: purchased ProQinase
T17 sequence (P08581 25-1390): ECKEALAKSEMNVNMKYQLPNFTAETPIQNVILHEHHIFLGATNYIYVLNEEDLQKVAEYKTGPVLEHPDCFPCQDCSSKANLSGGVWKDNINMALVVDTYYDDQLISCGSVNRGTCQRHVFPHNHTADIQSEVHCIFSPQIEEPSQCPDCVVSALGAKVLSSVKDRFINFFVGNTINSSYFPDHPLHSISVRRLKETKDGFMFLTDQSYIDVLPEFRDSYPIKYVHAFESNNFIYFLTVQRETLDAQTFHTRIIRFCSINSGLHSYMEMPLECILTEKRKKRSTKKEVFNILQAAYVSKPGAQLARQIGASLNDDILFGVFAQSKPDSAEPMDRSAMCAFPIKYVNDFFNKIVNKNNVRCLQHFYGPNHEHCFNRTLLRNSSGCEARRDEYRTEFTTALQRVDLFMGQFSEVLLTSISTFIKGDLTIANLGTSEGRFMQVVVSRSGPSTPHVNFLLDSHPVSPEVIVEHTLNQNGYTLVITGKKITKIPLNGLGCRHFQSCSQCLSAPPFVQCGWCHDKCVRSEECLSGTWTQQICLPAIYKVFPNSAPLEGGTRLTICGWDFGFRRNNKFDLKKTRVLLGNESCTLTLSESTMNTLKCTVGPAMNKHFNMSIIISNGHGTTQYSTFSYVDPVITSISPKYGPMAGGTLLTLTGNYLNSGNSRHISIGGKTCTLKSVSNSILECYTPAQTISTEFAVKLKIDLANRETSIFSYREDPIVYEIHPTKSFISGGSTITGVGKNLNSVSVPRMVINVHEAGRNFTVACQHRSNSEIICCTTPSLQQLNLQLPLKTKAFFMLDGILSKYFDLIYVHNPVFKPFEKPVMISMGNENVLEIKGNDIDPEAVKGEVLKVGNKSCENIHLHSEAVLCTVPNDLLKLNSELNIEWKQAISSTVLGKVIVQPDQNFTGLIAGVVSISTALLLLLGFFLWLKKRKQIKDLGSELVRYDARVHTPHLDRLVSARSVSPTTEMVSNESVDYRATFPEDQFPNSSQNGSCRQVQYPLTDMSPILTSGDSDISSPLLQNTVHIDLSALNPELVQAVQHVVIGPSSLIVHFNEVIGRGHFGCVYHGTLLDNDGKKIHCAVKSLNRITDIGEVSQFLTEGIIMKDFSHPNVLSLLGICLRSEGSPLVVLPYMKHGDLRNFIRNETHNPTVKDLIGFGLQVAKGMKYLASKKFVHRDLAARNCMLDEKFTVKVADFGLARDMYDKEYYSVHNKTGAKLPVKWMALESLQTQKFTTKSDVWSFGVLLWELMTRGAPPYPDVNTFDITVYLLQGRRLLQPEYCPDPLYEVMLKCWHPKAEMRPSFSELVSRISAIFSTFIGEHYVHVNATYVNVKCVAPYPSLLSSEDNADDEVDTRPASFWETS
Experimental: as §1

PAK1 = target: T18, PAK1 (Homo sapiens, UniProt Q13153); assay: ProQinase kinase panel; assay type: biochemical; settings: read-out: Inh (%) at 1µM, PAK1
T18 construct: purchased ProQinase
Experimental: as §1

PDGFR-alpha = target: T19, PDGFR-alpha (Homo sapiens, UniProt P16234); assay: ProQinase kinase panel; assay type: biochemical; settings: read-out: Inh (%) at 1µM, PDGFR-alpha
T19 construct: purchased ProQinase
T19 sequence (P16234 24-1089): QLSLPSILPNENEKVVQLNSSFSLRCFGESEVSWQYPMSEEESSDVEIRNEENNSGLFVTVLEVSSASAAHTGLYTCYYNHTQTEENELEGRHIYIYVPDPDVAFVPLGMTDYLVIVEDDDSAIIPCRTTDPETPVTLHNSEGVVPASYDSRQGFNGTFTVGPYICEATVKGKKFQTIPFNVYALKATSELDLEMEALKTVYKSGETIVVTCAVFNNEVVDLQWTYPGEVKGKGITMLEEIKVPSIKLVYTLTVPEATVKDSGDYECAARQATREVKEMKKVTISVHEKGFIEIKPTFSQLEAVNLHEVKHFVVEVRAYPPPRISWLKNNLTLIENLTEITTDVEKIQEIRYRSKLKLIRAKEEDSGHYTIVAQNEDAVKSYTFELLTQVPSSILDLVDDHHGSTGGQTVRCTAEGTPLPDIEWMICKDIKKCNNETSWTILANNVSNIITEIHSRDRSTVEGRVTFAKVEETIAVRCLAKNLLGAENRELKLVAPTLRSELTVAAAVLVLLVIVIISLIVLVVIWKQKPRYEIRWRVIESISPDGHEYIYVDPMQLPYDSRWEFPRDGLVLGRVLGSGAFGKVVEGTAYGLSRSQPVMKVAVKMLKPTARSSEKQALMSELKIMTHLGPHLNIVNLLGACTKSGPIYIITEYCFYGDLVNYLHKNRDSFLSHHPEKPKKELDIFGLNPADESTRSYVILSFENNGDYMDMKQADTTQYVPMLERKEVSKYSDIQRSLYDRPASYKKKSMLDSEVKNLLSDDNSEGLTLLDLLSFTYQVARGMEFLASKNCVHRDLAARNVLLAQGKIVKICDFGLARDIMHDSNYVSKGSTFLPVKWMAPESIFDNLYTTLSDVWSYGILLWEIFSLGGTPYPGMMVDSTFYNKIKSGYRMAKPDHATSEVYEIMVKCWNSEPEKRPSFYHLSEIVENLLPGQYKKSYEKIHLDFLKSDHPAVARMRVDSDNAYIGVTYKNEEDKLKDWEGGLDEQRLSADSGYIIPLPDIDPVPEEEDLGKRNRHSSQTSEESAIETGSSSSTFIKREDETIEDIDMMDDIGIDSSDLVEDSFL
Experimental: as §1

PDK1 = target: T20, PDK1 (Homo sapiens, UniProt O15530); assay: ProQinase kinase panel; assay type: biochemical; settings: read-out: Inh (%) at 1µM, PDK1
T20 construct: purchased ProQinase
Experimental: as §1

RPS6KA1 = target: T21, RPS6KA1 (Homo sapiens, UniProt Q15418); assay: ProQinase kinase panel; assay type: biochemical; settings: read-out: Inh (%) at 1µM, RPS6KA1
T21 construct: purchased ProQinase
Experimental: as §1

SGK1 = target: T22, SGK1 (Homo sapiens, UniProt O00141); assay: ProQinase kinase panel; assay type: biochemical; settings: read-out: Inh (%) at 1µM, SGK1
T22 construct: purchased ProQinase
Experimental: as §1

SRC = target: T23, SRC (Homo sapiens, UniProt P12931); assay: ProQinase kinase panel; assay type: biochemical; settings: read-out: Inh (%) at 1µM, SRC
T23 construct: purchased ProQinase
Experimental: as §1

VEGF-R2 = target: T24, VEGF-R2 (Homo sapiens, UniProt P35968); assay: ProQinase kinase panel; assay type: biochemical; settings: read-out: Inh (%) at 1µM, VEGF-R2
T24 construct: purchased ProQinase
Experimental: as §1

IPSCs = test system: IPSCs; parameters: method as in PMID 25971796; settings: cited from earlier work

Compound	Inhibition of TRF1 foci (in words) [1]	TRF1 levels as compared to bortezomib/DMSO-treated control cells [1]	Inhibition of any kinase of the 24 kinase panel (in words) [2]	inhibition at 1 µM (AKT2) [%]	inhibition at 1 µM (B-RAF-V600E) [%]	inhibition at 1 µM (CDK8-CycC) [%]	inhibition at 1 µM (CHK1) [%]	inhibition at 1 µM (CHK2) [%]	inhibition at 1 µM (CK1-alpha1) [%]	inhibition at 1 µM (DYRK1A) [%]	inhibition at 1 µM (EGF-R) [%]	inhibition at 1 µM (FAK) [%]	inhibition at 1 µM (FGF-R1) [%]	inhibition at 1 µM (IGF1-R) [%]	inhibition at 1 µM (IKK-beta) [%]	inhibition at 1 µM (INS-R) [%]	inhibition at 1 µM (JAK2) [%]	inhibition at 1 µM (KIT) [%]	inhibition at 1 µM (MEK1) [%]	inhibition at 1 µM (MET) [%]	also measured
CS(=O)(=O)N1CCN(Cc2cc3c(N4CCOCC4)nc(-c4cnc(N)nc4)cn3n2)CC1 [ETP-47037]	efficient inhibition of TRF1 foci	significantly lower	negligible inhibition of any kinase tested	-7.5	6.5	-4.5	15.5	0.5	-6	-1	22.5	14.5	6.5	2	1	5	2	9	-15	3	inhibition at 1 µM (PAK1): -3.5%; inhibition at 1 µM (PDGFR-alpha): 4%; inhibition at 1 µM (PDK1): 7%; inhibition at 1 µM (RPS6KA1): -4.5%; inhibition at 1 µM (SGK1): 0.5%; inhibition at 1 µM (SRC): 26%; inhibition at 1 µM (VEGF-R2): 21.5%; Formation of MTS in IPSCs (IPSCs): induce formation of MTS
Cc1cnc2c(N3CCOCC3)nc(-c3ccc(NC(=O)Nc4ccc(C(=O)N5CCN(C)CC5)cc4)cc3)cn12 [ETP-47228]	efficient inhibition of TRF1 foci	significantly lower	negligible inhibition of any kinase tested	-8	11.5	1	-11.5	3	2	4	0.5	-7.5	-3.5	-19	-10	-3	4	6.5	-3	3	inhibition at 1 µM (PAK1): 1%; inhibition at 1 µM (PDGFR-alpha): 1%; inhibition at 1 µM (PDK1): -9%; inhibition at 1 µM (RPS6KA1): -1.5%; inhibition at 1 µM (SGK1): 0.5%; inhibition at 1 µM (SRC): 5%; inhibition at 1 µM (VEGF-R2): -3%; Formation of MTS in IPSCs (IPSCs): induce formation of MTS
